The source of these data is patent publication US10323000B2, “Indole derivatives and their use in neurodegenerative diseases” (priority 2014, dated 2019).

Read-outs that look alike come from different tables or passages of the source.

Test [1] concerns the target P2X7 (IL-1β release from THP-1 cells) (Homo sapiens (Human), UniProt Q99572). Description: IL-1β release assay. Format: cell-based. The procedure, abridged: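 THP-1 cells were differentiated with PMA 0.5 μM and primed 4 h with LPS 10 ng/ml. They were then pre-incubated 20 min with compound at 37° C and stimulated 30 min with BzATP 0.8 mM. Mature IL-1β released into the supernatant was quantified by sandwich ELISA.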

In test [2] the target is human P2X7 receptor (Homo sapiens (Human), UniProt Q99572). Description: Pore permeation assay (YO PRO dye uptake). Format: cell-based.
Sequence of human P2X7 receptor (Q99572 whole entry): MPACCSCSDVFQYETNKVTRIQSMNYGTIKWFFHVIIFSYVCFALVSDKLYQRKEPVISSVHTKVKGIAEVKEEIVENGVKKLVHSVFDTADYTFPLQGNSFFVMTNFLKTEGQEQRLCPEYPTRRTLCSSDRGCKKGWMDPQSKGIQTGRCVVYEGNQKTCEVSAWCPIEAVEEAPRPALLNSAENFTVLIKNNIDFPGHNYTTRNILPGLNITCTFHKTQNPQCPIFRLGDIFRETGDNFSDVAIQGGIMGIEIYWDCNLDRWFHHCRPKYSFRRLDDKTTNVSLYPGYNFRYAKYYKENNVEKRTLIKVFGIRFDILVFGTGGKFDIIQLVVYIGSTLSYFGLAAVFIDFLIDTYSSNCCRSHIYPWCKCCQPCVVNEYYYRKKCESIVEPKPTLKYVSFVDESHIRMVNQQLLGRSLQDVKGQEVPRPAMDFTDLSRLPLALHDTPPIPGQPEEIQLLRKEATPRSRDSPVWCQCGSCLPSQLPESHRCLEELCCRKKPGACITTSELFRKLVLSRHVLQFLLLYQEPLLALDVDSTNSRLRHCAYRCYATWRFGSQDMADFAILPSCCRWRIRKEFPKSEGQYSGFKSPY
[3] abbreviates: THP-1 cells, LPS primed, 0.8 mM BzATP, mature IL-1β by sandwich ELISA, read-out: hTHP-1/IL-ib IC50.
Setting [4] is: HEK293 transfected with human P2X7, BzATP 10 uM, YO PRO dye uptake, read-out: hP2X7 IC50.

Sequence of P2X7 (IL-1β release from THP-1 cells) (Q99572 whole entry): as above

Take `O=C(NCC1(O)CCC(F)(F)CC1)c1cn(C2COC2)c2cccc(Cl)c12` [Compound 92, 4-chloro-N-((4,4-difluoro-1-hydroxycyclohexyl)methyl)-1-(oxetan-3-yl)-1H-indole-3-carboxamide]: the results for the IC50 in test [1] and in test [2] were 101 to 500 nM and 10 to 100 nM, respectively.
The corresponding values for `O=C(NCC1CCC(F)(F)CC1)c1cn(CCN2CCCC2=O)c2cccc(Cl)c12` [Compound 189, 4-chloro-N-((4,4-difluorocyclohexyl)methyl)-1-(2-(2-oxopyrrolidin-1-yl)ethyl)-1H-indole-3-carboxamide] are 101 to 500 nM and 10 to 100 nM.
On to `O=C(NCC1(O)CCC(F)(F)CC1)c1cn(CCC(F)(F)F)c2cccc(Cl)c12` [Compound 12, 4-chloro-N-((4,4-difluoro-1-hydroxycyclohexyl)methyl)-1-(3,3,3-trifluoropropyl)-1H-indole-3-carboxamide], for which the IC50 was in the range of 500 to 999 nM in test [1] and 101 to 500 nM in test [2].
The corresponding values for `O=C(NCC1(O)CCCC(F)(F)C1)c1cn(C2COC2)c2cccc(Cl)c12` (racemic) [Compound 86, 4-chloro-N-((3,3-difluoro-1-hydroxycyclohexyl)methyl)-1-(oxetan-3-yl)-1H-indole-3-carboxamide] are 10 to 100 nM and 10 to 100 nM.
In the case of `O=C(NC[C@H]1CCCC[C@H]1O)c1cn(C2COC2)c2cccc(Cl)c12` [Compound 88, cis-4-Chloro-1-oxetan-3-yl-1H-indole-3-carboxylic acid ((1R,2R)-2-hydroxy-cyclohexylmethyl)-amide], the IC50 in test [1] (setting [3]) is above 1000 nM; in test [2] it was 101 to 500 nM.
Take `CC(NC(=O)c1cn(C2COC2)c2cccc(Cl)c12)[C@]12C[C@H]3C[C@H](C[C@H](C3)C1)C2` (some centres unmarked) [Compound 62, 4-Chloro-1-oxetan-3-yl-1H-indole-3-carboxylic acid (1-adamantan-1-yl-ethyl)-amide]: the IC50 in test [1] and in test [2] was 10 to 100 nM in each case.
As to `O=C(NCC1CCC(F)(F)CC1)c1cn(C[C@H]2CCN2)c2cccc(Cl)c12` [Compound 123, (R)-1-(azetidin-2-ylmethyl)-4-chloro-N-((4,4-difluorocyclohexyl)methyl)-1H-indole-3-carboxamide], the IC50 in test [1] and in test [2] was 101 to 500 nM in each case.
`CN1C(=O)CC[C@@H]1Cn1cc(C(=O)NCC2CCC(F)(F)CC2)c2c(Cl)cccc21` [Compound 182, (R)-4-chloro-N-((4,4-difluorocyclohexyl)methyl)-1-((1-methyl-5-oxopyrrolidin-2-yl)methyl)-1H-indole-3-carboxamide]: the IC50 in test [1] and in test [2] was 10 to 100 nM throughout.
On to `O=C(NCC1CCC(F)(F)CC1)c1cn(CC(=O)N2CCOCC2)c2cccc(Cl)c12` [Compound 190, 4-Chloro-1-(2-morpholin-4-yl-2-oxo-ethyl)-1H-indole-3-carboxylic acid (4,4-difluoro-cyclohexylmethyl)-amide], for which the IC50 in test [1] (setting [3]) and in test [2] (setting [4]) was 101 to 500 nM throughout.
On to `O=C(NCC1CCC(F)(F)CC1)c1cn(C[C@@H]2CCCO2)c2cccc(Cl)c12` [Compound 132, (S)-4-chloro-N-((4,4-difluorocyclohexyl)methyl)-1-((tetrahydrofuran-2-yl)methyl)-1H-indole-3-carboxamide], for which the IC50 in test [1] and in test [2] was 10 to 100 nM each time.
In the case of `O=C(NCC1CCC(F)(F)CC1)c1cn(CC(=O)N2CCC2)c2cccc(Cl)c12` [Compound 163], the IC50 was 10 to 100 nM in test [1] and below 10 nM in test [2] (setting [4]).
Take `O=C(NCCCC(F)(F)F)c1cn(C2COC2)c2cccc(Cl)c12` [Compound 73, 4-Chloro-1-oxetan-3-yl-1H-indole-3-carboxylic acid (4,4,4-trifluoro-butyl)-amide]: the IC50 in test [1] was 500 to 999 nM; in test [2], 101 to 500 nM.
For `O=C(NCC1(O)CCCC1)c1cn(C2COC2)c2cccc(Cl)c12` [Compound 81, 4-Chloro-1-oxetan-3-yl-1H-indole-3-carboxylic acid (1-hydroxy-cyclopentylmethyl)-amide] the same measures were 500 to 999 nM and 101 to 500 nM.
For `O=C(NCC1(O)CCCC(F)(F)C1)c1cn(CC2CCOC2)c2cccc(Cl)c12` (centres unmarked) [Compound 146, 4-chloro-N-((3,3-difluoro-1-hydroxycyclohexyl)methyl)-1-((tetrahydrofuran-3-yl)methyl)-1H-indole-3-carboxamide] the same measures were 10 to 100 nM and 10 to 100 nM.
Consider `O=C(NC[C@@H]1CCCC[C@H]1O)c1cn(C2COC2)c2cccc(Cl)c12` [Compound 87], for which the results for the IC50 in test [1] (setting [3]) and in test [2] were above 1000 nM and 101 to 500 nM, respectively.
For `CN(C)C(=O)Cn1cc(C(=O)NCC2(O)CCC(F)(F)CC2)c2c(Cl)cccc21` [Compound 205, 4-Chloro-1-dimethylcarbamoylmethyl-1H-indole-3-carboxylic acid (4,4-difluoro-1-hydroxy-cyclohexylmethyl)-amide], the IC50 was 10 to 100 nM in test [1] and below 10 nM in test [2] (setting [4]).
On to `CC(C(=O)N(C)C)n1cc(C(=O)NCC2CCC(F)(F)CC2)c2c(Cl)cccc21` (centres unmarked) [Compound 200, 4-chloro-N-((4,4-difluorocyclohexyl)methyl)-1-(1-(dimethylamino)-1-oxopropan-2-yl)-1H-indole-3-carboxamide], for which the IC50 in test [1] is 10 to 100 nM; in test [2] (setting [4]), below 10 nM.
As to `O=C(NC[C@@H]1CCCC(F)(F)C1)c1cn(C2COC2)c2cccc(Cl)c12` [Compound 66, 4-chloro-N—(((R)-3,3-difluorocyclohexyl)methyl)-1-(oxetan-3-yl)-1H-indole-3-carboxamide], the IC50 in test [1] was in the range of 101 to 500 nM; in test [2], 10 to 100 nM.
For `O=C(NCC1(O)CCC(F)(F)CC1)c1cn(CC(F)(F)F)c2cccc(Cl)c12` [Compound 4, 4-chloro-N-((4,4-difluoro-1-hydroxycyclohexyl)methyl)-1-(2,2,2-trifluoroethyl)-1H-indole-3-carboxamide] the same measures were 101 to 500 nM and 10 to 100 nM.
For `COCCn1cc(C(=O)NCC(C)c2ccccc2Cl)c2c(Cl)cccc21` (centres unmarked) [Compound 33, 4-chloro-N-(2-(2-chlorophenyl)propyl)-1-(2-methoxyethyl)-1H-indole-3-carboxamide], the IC50 in test [1] (setting [3]) is above 1000 nM; in test [2], 101 to 500 nM.
For the molecule `C[C@@H](NC(=O)c1cn(C2CCOC2)c2cccc(Cl)c12)C1C[C@H]2CC[C@@H]1C2` (stereo partly drawn) [Compound 109, 4-Chloro-1-(tetrahydro-furan-3-yl)-1H-indole-3-carboxylic acid ((1R,4S)-1-bicyclo[2.2.1]hept-2-yl-ethyl)-amide], the IC50 in test [1] was in the range of 500 to 999 nM; in test [2], 101 to 500 nM.
The corresponding values for `NCCn1cc(C(=O)NCC2CCC(F)(F)CC2)c2c(Cl)cccc21` [Compound 6, 1-(2-aminoethyl)-4-chloro-N-((4,4-difluorocyclo-hexyl)methyl)-1H-indole-3-carboxamide] are 10 to 100 nM and 101 to 500 nM.
The corresponding values for `O=C(NCC1CCC(F)(F)CC1)c1cn(C2COC2)c2cccc(Cl)c12` [Compound 94, 4-chloro-N-((4,4-difluorocyclohexyl)methyl)-1-(oxetan-3-yl)-1H-indole-3-carboxamide] are 10 to 100 nM and 10 to 100 nM.
Take `CCC1CCCC(O)(CNC(=O)c2cn(CC3CCCO3)c3cccc(Cl)c23)C1` (centres unmarked) [Compound 137, 4-chloro-N-((3-ethyl-1-hydroxycyclohexyl)methyl)-1-((tetrahydrofuran-2-yl)methyl)-1H-indole-3-carboxamide]: the IC50 was above 1000 nM in test [1] (setting [3]) and 101 to 500 nM in test [2].
Take `O=C(NCC1(O)CCCC(F)(F)C1)c1cn(CC2CCCO2)c2cccc(Cl)c12` (centres unmarked) [Compound 139, 4-chloro-N-((3,3-difluoro-1-hydroxycyclohexyl)methyl)-1-((tetrahydrofuran-2-yl)methyl)-1H-indole-3-carboxamide]: the IC50 in test [1] and in test [2] was 10 to 100 nM in each case.
As for `O=C(NCC1CCC(F)(F)CC1)c1cn(CC2COCCO2)c2cccc(Cl)c12` (centres unmarked) [Compound 150, 1-((1,4-dioxan-2-yl)methyl)-4-chloro-N-((4,4-difluorocyclohexyl)methyl)-1H-indole-3-carboxamide], the IC50 in test [1] and in test [2] was 10 to 100 nM throughout.
For `CC1CC(O)(CNC(=O)c2cn(C3CCOC3)c3cccc(Cl)c23)CCC1(F)F` (centres unmarked) [Compound 106, 4-Chloro-1-(tetrahydro-furan-3-yl)-1H-indole-3-carboxylic acid (4,4-difluoro-1-hydroxy-3-methyl-cyclohexylmethyl)-amide], the IC50 is 101 to 500 nM in test [1] and 500 to 999 nM in test [2].
For `O=C(NC[C@@]1(O)CCCC(F)(F)C1)c1cn(C2COC2)c2cccc(Cl)c12` [Compound 84, (R)-4-chloro-N-((3,3-difluoro-1-hydroxycyclohexyl)methyl)-1-(oxetan-3-yl)-1H-indole-3-carboxamide], the IC50 in test [1] and in test [2] was 101 to 500 nM in each case.
Regarding `COCCn1cc(C(=O)NCC2(O)CCCC(F)(F)C2)c2c(Cl)cccc21` (centres unmarked) [Compound 37, 4-chloro-N-((3,3-difluoro-1-hydroxycyclohexyl)methyl)-1-(2-methoxyethyl)-1H-indole-3-carboxamide], the IC50 in test [1] and in test [2] was 10 to 100 nM throughout.
In the case of `CC1(C)CCCC(O)(CNC(=O)c2cn(C3CCOC3)c3cccc(Cl)c23)C1` (centres unmarked) [Compound 107, 4-Chloro-1-(tetrahydro-furan-3-yl)-1H-indole-3-carboxylic acid (1-hydroxy-3,3-dimethyl-cyclohexylmethyl)-amide], the IC50 was 101 to 500 nM in test [1] and 10 to 100 nM in test [2].
With `O=C(NCC1CCC(F)(F)CC1)c1cn(CC2CCCCN2)c2cccc(Cl)c12` (centres unmarked) [Compound 173, 4-chloro-N-((4,4-difluorocyclohexyl)methyl)-1-(piperidin-2-ylmethyl)-1H-indole-3-carboxamide], the IC50 in test [1] (setting [3]) and in test [2] (setting [4]) was below 10 nM in each case.
